Measured values reported in PubChem BioAssay AID1963869 (Molecular Pharmacology Branch, DTP, NCI, 2024).

Test system: KRAS patient-derived spheroids with HUVEC/MSC, viability
Test: Anticancer human tumor 323965-272-R-J2-PDC patient-derived pancreatic carcinoma cell line growth inhibition [KRAS2]
Conditions: for viability, T/C: stronger effect = lower value
Summary of the method: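 Combination screen of spheroid viability in tumor-cell co-cultures with endothelial (HUVEC) and mesenchymal stem cell stroma. Each agent was tested in half-log dilutions, topping at clinical Cmax or at 10 microM without a known Cmax.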

[1] = curve of first compound, second compound 0.0316 µM
[2] = curve of first compound, second compound 0.1 µM
[3] = curve of first compound, second compound 0.316 µM
[4] = curve of first compound, second compound 1 µM
[5] = curve of first compound, second compound 3.16 µM
[6] = second compound 0.0316 µM, first compound 0.0316 µM
[7] = second compound 0.0316 µM, first compound 0.1 µM
[8] = second compound 0.0316 µM, first compound 0.316 µM
[9] = second compound 0.0316 µM, first compound 1 µM
[10] = second compound 0.0316 µM, first compound 3.16 µM
[11] = second compound 0.0316 µM, first compound 10 µM
[12] = second compound 0.1 µM, first compound 0.0316 µM
[13] = second compound 0.1 µM, first compound 0.1 µM
[14] = second compound 0.1 µM, first compound 0.316 µM
[15] = second compound 0.1 µM, first compound 1 µM
[16] = second compound 0.1 µM, first compound 3.16 µM
[17] = second compound 0.1 µM, first compound 10 µM
[18] = second compound 0.316 µM, first compound 0.0316 µM
[19] = second compound 0.316 µM, first compound 0.1 µM
[20] = second compound 0.316 µM, first compound 0.316 µM
[21] = second compound 0.316 µM, first compound 1 µM
[22] = second compound 0.316 µM, first compound 3.16 µM
[23] = second compound 0.316 µM, first compound 10 µM
[24] = second compound 1 µM, first compound 0.0316 µM
[25] = second compound 1 µM, first compound 0.1 µM
[26] = second compound 1 µM, first compound 0.316 µM
[27] = second compound 1 µM, first compound 1 µM
[28] = second compound 1 µM, first compound 3.16 µM
[29] = second compound 1 µM, first compound 10 µM
[30] = second compound 3.16 µM, first compound 0.0316 µM
[31] = second compound 3.16 µM, first compound 0.1 µM
[32] = second compound 3.16 µM, first compound 0.316 µM
[33] = second compound 3.16 µM, first compound 1 µM
[34] = second compound 3.16 µM, first compound 3.16 µM
[35] = second compound 3.16 µM, first compound 10 µM
[36] = curve of first compound, second compound 10 µM
[37] = second compound 0.1 µM, first compound 0.01 µM
[38] = second compound 0.316 µM, first compound 0.01 µM
[39] = second compound 1 µM, first compound 0.01 µM
[40] = second compound 3.16 µM, first compound 0.01 µM
[41] = second compound 10 µM, first compound 0.01 µM
[42] = second compound 10 µM, first compound 0.0316 µM
[43] = second compound 10 µM, first compound 0.1 µM
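Note: spheroids exposed to agents for 7 days.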
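Throughout, for viability, T/C: 100% = DMSO vehicle control viability.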

## CCNC(=O)CC1N=C(c2ccc(Cl)cc2)c2cc(OC)ccc2-n2c(C)nnc21 (stereo unspecified) + C=CC(=O)N1CCN(c2nc(OCC3CCCN3C)nc3c2CCN(c2cccc4cccc(C)c24)C3)CC1CC#N
[1]
  IC50: 210 nM
[2]
  IC50: 101 nM
[3]
  IC50: 240 nM
[4]
  IC50: 111 nM
[5]
  IC50: < 31.6 nM
[6]
  viability, T/C: 75.3%
[7]
  viability, T/C: 59.5%
[8]
  viability, T/C: 46.3%
[9]
  viability, T/C: 30.4%
[10]
  viability, T/C: 26.4%
[11]
  viability, T/C: 27.2%
[12]
  viability, T/C: 63.1%
[13]
  viability, T/C: 51.1%
[14]
  viability, T/C: 35.6%
[15]
  viability, T/C: 31.9%
[16]
  viability, T/C: 26.3%
[17]
  viability, T/C: 24.2%
[18]
  viability, T/C: 89.5%
[19]
  viability, T/C: 91.3%
[20]
  viability, T/C: 37.3%
[21]
  viability, T/C: 29.7%
[22]
  viability, T/C: 24.7%
[23]
  viability, T/C: 24.1%
[24]
  viability, T/C: 60.4%
[25]
  viability, T/C: 50.6%
[26]
  viability, T/C: 38.5%
[27]
  viability, T/C: 27%
[28]
  viability, T/C: 22.6%
[29]
  viability, T/C: 22.5%
[30]
  viability, T/C: 10.5%
[31]
  viability, T/C: 6.25%
[32]
  viability, T/C: 3.72%
[33]
  viability, T/C: 0.16%
[34]
  viability, T/C: 1.28%
[35]
  viability, T/C: 0.88%

## COc1cc2nccc(Oc3ccc(NC(=O)C4(C(=O)Nc5ccc(F)cc5)CC4)cc3)c2cc1OC + C=CC(=O)N1CCN(c2nc(OCC3CCCN3C)nc3c2CCN(c2cccc4cccc(C)c24)C3)CC1CC#N
[1]
  IC50: > 10000 nM
[2]
  IC50: > 10000 nM
[3]
  IC50: > 10000 nM
[4]
  IC50: > 10000 nM
[5]
  IC50: < 31.6 nM
[6]
  viability, T/C: 69%
[7]
  viability, T/C: 71.3%
[8]
  viability, T/C: 77.3%
[9]
  viability, T/C: 76.8%
[10]
  viability, T/C: 74.6%
[11]
  viability, T/C: 80.3%
[12]
  viability, T/C: 55.9%
[13]
  viability, T/C: 62.1%
[14]
  viability, T/C: 64.6%
[15]
  viability, T/C: 67.3%
[16]
  viability, T/C: 65.9%
[17]
  viability, T/C: 64.3%
[18]
  viability, T/C: 58.9%
[19]
  viability, T/C: 59.6%
[20]
  viability, T/C: 65.3%
[21]
  viability, T/C: 68.8%
[22]
  viability, T/C: 64.8%
[23]
  viability, T/C: 70.1%
[24]
  viability, T/C: 59.3%
[25]
  viability, T/C: 63.5%
[26]
  viability, T/C: 62.8%
[27]
  viability, T/C: 69.9%
[28]
  viability, T/C: 66.5%
[29]
  viability, T/C: 58.5%
[30]
  viability, T/C: 21.5%
[31]
  viability, T/C: 20.1%
[32]
  viability, T/C: 8.93%
[33]
  viability, T/C: 3.74%
[34]
  viability, T/C: 3.65%
[35]
  viability, T/C: 0.28%

## CN(C)C/C=C/C(=O)Nc1cc2c(Nc3ccc(F)c(Cl)c3)ncnc2cc1O[C@H]1CCOC1 + C=CC(=O)N1CCN(c2nc(=O)n(-c3c(C)ccnc3C(C)C)c3nc(-c4c(O)cccc4F)c(F)cc23)C(C)C1
[2]
  IC50: 6.19 nM
[3]
  IC50: 1.29 nM
[4]
  IC50: 1.87 nM
[5]
  IC50: 4.24 nM
[36]
  IC50: 1.48 nM
Second compound 0.1 µM, first compound 0.000316 µM
  viability, T/C: 63.3%
Second compound 0.1 µM, first compound 0.001 µM
  viability, T/C: 50.9%
Second compound 0.1 µM, first compound 0.00316 µM
  viability, T/C: 49.6%
[37]
  viability, T/C: 57.7%
[12]
  viability, T/C: 43.1%
[13]
  viability, T/C: 44%
Second compound 0.316 µM, first compound 0.000316 µM
  viability, T/C: 61.3%
Second compound 0.316 µM, first compound 0.001 µM
  viability, T/C: 50%
Second compound 0.316 µM, first compound 0.00316 µM
  viability, T/C: 47.3%
[38]
  viability, T/C: 42.4%
[18]
  viability, T/C: 41.8%
[19]
  viability, T/C: 40.5%
Second compound 1 µM, first compound 0.000316 µM
  viability, T/C: 58.6%
Second compound 1 µM, first compound 0.001 µM
  viability, T/C: 54.2%
Second compound 1 µM, first compound 0.00316 µM
  viability, T/C: 50.5%
[39]
  viability, T/C: 41.3%
[24]
  viability, T/C: 37.8%
[25]
  viability, T/C: 44.6%
Second compound 3.16 µM, first compound 0.000316 µM
  viability, T/C: 58.1%
Second compound 3.16 µM, first compound 0.001 µM
  viability, T/C: 58%
Second compound 3.16 µM, first compound 0.00316 µM
  viability, T/C: 50.1%
[40]
  viability, T/C: 48%
[30]
  viability, T/C: 40.5%
[31]
  viability, T/C: 42.5%
Second compound 10 µM, first compound 0.000316 µM
  viability, T/C: 62.2%
Second compound 10 µM, first compound 0.001 µM
  viability, T/C: 53%
Second compound 10 µM, first compound 0.00316 µM
  viability, T/C: 44.6%
[41]
  viability, T/C: 45.6%
[42]
  viability, T/C: 45.7%
[43]
  viability, T/C: 43.5%

## CC(=O)OC12COC1CC(O)C1(C)C(=O)C(O)C3=C(C)C(OC(=O)C(O)C(NC(=O)OC(C)(C)C)c4ccccc4)CC(O)(C(OC(=O)c4ccccc4)C21)C3(C)C (stereo unspecified) + COc1cc2nc(C)nc(NC(C)c3cc(N)cc(C(F)(F)F)c3)c2cc1OC1CCOC1
[2]
  IC50: < 10 nM
[3]
  IC50: < 10 nM
[4]
  IC50: < 10 nM
[5]
  IC50: < 10 nM
[36]
  IC50: < 10 nM
[37]
  viability, T/C: 28.6%
[12]
  viability, T/C: 28.6%
[13]
  viability, T/C: 23.8%
[14]
  viability, T/C: 23.2%
[15]
  viability, T/C: 28.2%
[16]
  viability, T/C: 25.2%
[38]
  viability, T/C: 24.2%
[18]
  viability, T/C: 24.5%
[19]
  viability, T/C: 21.6%
[20]
  viability, T/C: 22.4%
[21]
  viability, T/C: 24.5%
[22]
  viability, T/C: 25.2%
[39]
  viability, T/C: 21.6%
[24]
  viability, T/C: 28%
[25]
  viability, T/C: 27.6%
[26]
  viability, T/C: 27.2%
[27]
  viability, T/C: 30.4%
[28]
  viability, T/C: 35.3%
[40]
  viability, T/C: 21.4%
[30]
  viability, T/C: 20.1%
[31]
  viability, T/C: 18.8%
[32]
  viability, T/C: 20.4%
[33]
  viability, T/C: 20.1%
[34]
  viability, T/C: 24.3%
[41]
  viability, T/C: 23.1%
[42]
  viability, T/C: 21.2%
[43]
  viability, T/C: 17.8%
Second compound 10 µM, first compound 0.316 µM
  viability, T/C: 17.1%
Second compound 10 µM, first compound 1 µM
  viability, T/C: 21.2%
Second compound 10 µM, first compound 3.16 µM
  viability, T/C: 15.8%

## CCN1CCN(Cc2ccc(Nc3ncc(F)c(-c4cc(F)c5nc(C)n(C(C)C)c5c4)n3)nc2)CC1
Compound 0.00316 µM
  viability, T/C: 93.4% [middle of 5 runs]
Compound 0.0316 µM
  viability, T/C: 76.6% [middle of 5 runs]
Compound 0.1 µM
  viability, T/C: 61% [middle of 5 runs]
Compound 0.316 µM
  viability, T/C: 62.1% [middle of 5 runs]
Compound 1 µM
  viability, T/C: 62.6% [middle of 5 runs]
Curve of compound
  IC50: > 1000 nM
